According to ChEMBL document CHEMBL3352784, “Investigation of Cardiovascular Effects of Tetrahydro-β-carboline sstr3 antagonists” (ACS Med Chem Lett, 2014):

Columns and labels:
[1] = target: T1, Somatostatin receptor type 3 (Homo sapiens, UniProt P32745)
Description: Antagonist activity at human SSTR3 expressed in CHO cells assessed as cAMP level by fluorescence analysis

[2] = target: T1, Somatostatin receptor type 3; experiment: biochemical
Description: Displacement of [125I]SS-14 from human SSTR3 expressed in CHO cells by TopCount analyzer

[3] = target: T2, Somatostatin receptor type 3 (Mus musculus, UniProt P30935); experiment: Antagonist activity at mouse SSTR3 expressed in CHO cells assessed as cAMP level by fluorescence analysis; type: functional, cell-based
[4] = target: Somatostatin receptor type 3 (Mus musculus) (UniProt P30935); experiment: Antagonist activity at mouse SSTR3 expressed in CHO cells assessed as cAMP level by fluorescence analysis relative to control; type: functional, cell-based; parameters: concentration or dose not given beside the values; conditions: concentration not given here
[5] = target: Voltage-gated inwardly rectifying potassium channel KCNH2 (Homo sapiens, UniProt Q12809)
Description: Inhibition of human ERG by MK-499 displacement binding analysis

[6] = target: T2, Somatostatin receptor type 3; type: cell-based, CHO
[7] = Plasma concentration in C57BL/6 mouse at 1 mg/kg, ip after 2.5 hrs; type: ADME, organism-based; parameters: dose 1 mg/kg, route intraperitoneal
[8] = Oral bioavailability in mouse; type: ADME, organism-based; conditions: in vivo
Mus musculus [9] = experiment: Antidiabetic activity in C57BL/6 mouse assessed as reduction in glucose excursion at 3 mg/kg, po by oGTT assay relative to MK-4256; type: functional
[10] = target: Somatostatin receptor type 4 (Homo sapiens, UniProt P31391); type: cell-based, CHO
Mus musculus [11] = experiment: Antidiabetic activity in C57BL/6 mouse assessed as reduction in glucose excursion at 1 mg/kg, ip by oGTT assay relative to MK-4256; type: functional; conditions: C57BL/6, ip, route intraperitoneal
[12] = Plasma concentration in C57BL/6 mouse at 3 mg/kg, po after 2.5 hrs; type: ADME, organism-based; parameters: dose 3 mg/kg, route oral
in vivo [13] = conditions: dog, iv, 20 mg/kg
Canis familiaris = experiment: Toxicity in anesthetized vagus-intact cardiovascular dog model assessed as QTc interval prolongation at 909 uM plasma concentration; type: organism-based, Canis lupus familiaris
Mus musculus [14] = experiment: Antidiabetic activity in C57BL/6 mouse assessed as reduction in glucose excursion at 3 mg/kg, po by oGTT assay relative to control; type: functional; conditions: C57BL/6, read-out: INH
[15] = target: Somatostatin receptor type 2 (Homo sapiens, UniProt P30874); type: cell-based, CHO
Mus musculus [16] = experiment: Antidiabetic activity in C57BL/6 mouse assessed as reduction in glucose excursion at 10 mg/kg, po by oGTT assay relative to MK-4256; type: functional
[17] = Plasma concentration in C57BL/6 mouse at 10 mg/kg, po after 2.5 hrs; type: ADME, organism-based; parameters: dose 10 mg/kg, route oral
in vivo [18] = conditions: dog, iv, 10 mg/kg
in vivo [19] = conditions: dog, iv, 50 mg/kg
[20] = target: Somatostatin receptor type 1 (Homo sapiens, UniProt P30872); type: cell-based, CHO
[21] = Half life in mouse; type: ADME, organism-based; conditions: in vivo
[22] = target: Somatostatin receptor type 5 (Homo sapiens, UniProt P35346); type: cell-based, CHO
[23] = Clearance in mouse; type: ADME, organism-based; conditions: in vivo

Chain of Somatostatin receptor type 3 (Mus musculus) (P30935 whole entry): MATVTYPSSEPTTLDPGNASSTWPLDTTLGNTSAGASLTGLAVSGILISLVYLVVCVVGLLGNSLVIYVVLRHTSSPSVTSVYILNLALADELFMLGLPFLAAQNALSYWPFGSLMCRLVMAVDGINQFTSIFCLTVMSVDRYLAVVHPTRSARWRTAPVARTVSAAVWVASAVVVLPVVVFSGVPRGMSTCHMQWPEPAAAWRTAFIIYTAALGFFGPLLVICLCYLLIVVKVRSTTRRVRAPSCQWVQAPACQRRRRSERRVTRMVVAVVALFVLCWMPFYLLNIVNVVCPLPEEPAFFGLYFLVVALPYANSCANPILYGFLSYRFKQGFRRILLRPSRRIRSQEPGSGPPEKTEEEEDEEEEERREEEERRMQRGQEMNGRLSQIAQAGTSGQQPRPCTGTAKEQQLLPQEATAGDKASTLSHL
T2 sequence (P30935 whole entry): as above
T1 sequence (P32745 whole entry): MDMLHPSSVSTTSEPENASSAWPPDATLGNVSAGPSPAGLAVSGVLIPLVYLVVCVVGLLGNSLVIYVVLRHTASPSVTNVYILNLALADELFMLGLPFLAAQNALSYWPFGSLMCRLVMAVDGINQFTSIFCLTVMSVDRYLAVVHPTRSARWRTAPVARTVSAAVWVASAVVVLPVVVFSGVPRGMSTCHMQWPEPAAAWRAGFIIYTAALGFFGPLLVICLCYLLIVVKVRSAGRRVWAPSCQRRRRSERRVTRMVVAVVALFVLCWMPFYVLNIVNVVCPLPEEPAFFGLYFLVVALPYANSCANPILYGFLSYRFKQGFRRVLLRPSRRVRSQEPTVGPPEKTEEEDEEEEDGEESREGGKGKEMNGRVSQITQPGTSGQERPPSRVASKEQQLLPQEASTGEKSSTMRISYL
Chain of Voltage-gated inwardly rectifying potassium channel KCNH2 (Q12809 whole entry): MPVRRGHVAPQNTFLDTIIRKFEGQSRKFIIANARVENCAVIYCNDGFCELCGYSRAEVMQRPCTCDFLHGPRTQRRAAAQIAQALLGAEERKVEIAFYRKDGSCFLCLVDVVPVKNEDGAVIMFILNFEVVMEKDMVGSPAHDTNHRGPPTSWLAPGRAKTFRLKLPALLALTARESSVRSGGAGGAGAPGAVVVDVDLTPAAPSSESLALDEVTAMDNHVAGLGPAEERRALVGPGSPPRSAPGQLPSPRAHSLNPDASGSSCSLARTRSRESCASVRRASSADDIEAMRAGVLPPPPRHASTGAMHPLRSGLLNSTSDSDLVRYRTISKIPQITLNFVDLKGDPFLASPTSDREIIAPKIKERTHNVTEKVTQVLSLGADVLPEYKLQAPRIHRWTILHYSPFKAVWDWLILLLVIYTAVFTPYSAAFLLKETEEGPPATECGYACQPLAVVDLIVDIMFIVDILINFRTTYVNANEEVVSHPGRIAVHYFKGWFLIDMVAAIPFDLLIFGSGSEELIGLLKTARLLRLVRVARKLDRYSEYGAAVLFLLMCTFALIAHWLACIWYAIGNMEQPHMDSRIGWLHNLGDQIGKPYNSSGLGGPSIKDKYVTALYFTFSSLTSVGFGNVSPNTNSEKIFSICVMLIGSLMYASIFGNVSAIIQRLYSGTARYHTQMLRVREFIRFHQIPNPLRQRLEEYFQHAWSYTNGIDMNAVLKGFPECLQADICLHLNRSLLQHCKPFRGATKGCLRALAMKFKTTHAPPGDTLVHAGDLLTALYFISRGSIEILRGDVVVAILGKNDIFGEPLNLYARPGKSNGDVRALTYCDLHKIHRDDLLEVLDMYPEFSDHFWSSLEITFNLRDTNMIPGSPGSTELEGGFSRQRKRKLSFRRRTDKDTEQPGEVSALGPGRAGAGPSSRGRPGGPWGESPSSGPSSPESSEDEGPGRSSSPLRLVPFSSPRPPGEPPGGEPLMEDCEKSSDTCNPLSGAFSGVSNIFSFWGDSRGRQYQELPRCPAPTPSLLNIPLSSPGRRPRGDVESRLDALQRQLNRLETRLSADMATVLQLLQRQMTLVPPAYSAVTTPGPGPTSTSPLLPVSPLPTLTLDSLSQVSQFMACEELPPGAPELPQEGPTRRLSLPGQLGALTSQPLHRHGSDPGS
Chain of Somatostatin receptor type 1 (P30872 whole entry): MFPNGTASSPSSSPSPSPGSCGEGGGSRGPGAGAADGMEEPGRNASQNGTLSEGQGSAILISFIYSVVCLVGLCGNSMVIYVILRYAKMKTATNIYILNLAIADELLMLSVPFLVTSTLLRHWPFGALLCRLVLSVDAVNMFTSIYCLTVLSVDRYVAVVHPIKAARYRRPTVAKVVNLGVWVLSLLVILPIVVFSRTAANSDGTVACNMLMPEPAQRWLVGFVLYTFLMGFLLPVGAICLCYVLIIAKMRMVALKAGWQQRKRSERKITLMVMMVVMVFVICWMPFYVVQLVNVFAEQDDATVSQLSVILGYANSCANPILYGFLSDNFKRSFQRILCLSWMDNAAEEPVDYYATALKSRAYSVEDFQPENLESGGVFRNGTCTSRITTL
Chain of Somatostatin receptor type 4 (P31391 whole entry): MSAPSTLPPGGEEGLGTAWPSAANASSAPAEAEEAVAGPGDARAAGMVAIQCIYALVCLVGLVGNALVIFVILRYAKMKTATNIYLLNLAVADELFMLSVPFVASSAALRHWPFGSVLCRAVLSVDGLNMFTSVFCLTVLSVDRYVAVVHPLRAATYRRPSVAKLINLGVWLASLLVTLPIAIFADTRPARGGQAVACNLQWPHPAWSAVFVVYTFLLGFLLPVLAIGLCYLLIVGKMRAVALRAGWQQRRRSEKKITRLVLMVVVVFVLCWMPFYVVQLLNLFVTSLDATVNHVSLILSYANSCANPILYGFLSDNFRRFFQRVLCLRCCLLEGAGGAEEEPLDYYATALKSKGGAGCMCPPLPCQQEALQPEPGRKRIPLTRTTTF
Chain of Somatostatin receptor type 5 (P35346 whole entry): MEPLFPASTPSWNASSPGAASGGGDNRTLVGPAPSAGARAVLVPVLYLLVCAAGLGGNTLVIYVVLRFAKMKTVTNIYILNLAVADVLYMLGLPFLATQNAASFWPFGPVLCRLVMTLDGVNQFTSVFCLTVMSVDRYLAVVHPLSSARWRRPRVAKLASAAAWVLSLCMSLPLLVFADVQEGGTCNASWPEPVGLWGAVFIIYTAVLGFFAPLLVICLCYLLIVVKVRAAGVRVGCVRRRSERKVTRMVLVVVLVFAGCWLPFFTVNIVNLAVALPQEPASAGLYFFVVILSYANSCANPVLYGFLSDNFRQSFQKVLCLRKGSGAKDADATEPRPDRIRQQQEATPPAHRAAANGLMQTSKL
Chain of Somatostatin receptor type 2 (P30874 whole entry): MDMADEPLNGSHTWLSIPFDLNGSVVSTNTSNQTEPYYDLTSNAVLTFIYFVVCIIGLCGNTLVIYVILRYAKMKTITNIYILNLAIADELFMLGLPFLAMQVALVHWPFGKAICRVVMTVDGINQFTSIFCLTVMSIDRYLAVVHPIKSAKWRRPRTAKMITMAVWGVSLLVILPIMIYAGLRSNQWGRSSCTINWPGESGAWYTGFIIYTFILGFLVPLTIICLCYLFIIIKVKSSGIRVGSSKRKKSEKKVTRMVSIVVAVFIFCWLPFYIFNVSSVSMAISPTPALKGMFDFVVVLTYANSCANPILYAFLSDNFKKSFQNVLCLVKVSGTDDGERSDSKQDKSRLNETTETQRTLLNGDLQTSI

## CCOC(=O)c1ccnc([C@@]2(c3cnn(C)c3)N[C@@H](c3nc(-c4ccc(F)cc4)c[nH]3)Cc3c2[nH]c2ccccc32)c1
[1]
  IC50: 47.1 nM
[2]
  IC50: 4.87 nM
[3]
  IC50: 14.7 nM
[4]
  inhibition: 85%

## CCOC(=O)c1cncc([C@]2(c3cnn(C)c3)N[C@@H](c3nc(-c4ccc(F)cc4)c[nH]3)Cc3c2[nH]c2ccccc32)c1
[1]
  IC50: 0.15 nM
[2]
  IC50: 0.78 nM
[5]
  IC50: 2260 nM
[3]
  IC50: 0.35 nM
[4]
  inhibition: 99%

## CCOC(=O)c1cncc([C@@]2(c3cnn(C)c3)N[C@@H](c3nc(-c4ccc(F)cc4)c[nH]3)Cc3c2[nH]c2ccccc32)c1
[1]
  IC50: 24 nM
[2]
  IC50: 3.36 nM
[5]
  IC50: 2520 nM
[3]
  IC50: 8.37 nM
[4]
  inhibition: 107%

## Cn1cc([C@@]2(c3cncc(C(=O)O)c3)N[C@@H](c3nc(-c4ccc(F)cc4)c[nH]3)Cc3c2[nH]c2ccccc32)cn1
[1]
  IC50: 0.52 nM
[2]
  IC50: 1.22 nM
[3]
  IC50: 0.16 nM
[4]
  inhibition: 67%

## Cn1cc([C@]2(c3cncc(C(=O)O)c3)N[C@@H](c3nc(-c4ccc(F)cc4)c[nH]3)Cc3c2[nH]c2ccccc32)cn1
[1]
  IC50: 6.12 nM
[2]
  IC50: 10.8 nM
[3]
  IC50: 2.9 nM
[4]
  inhibition: 80%

## CCOC(=O)c1ccnc(C2(c3cnn(C)c3)N[C@@H](c3nc(-c4ccc(F)cc4)c[nH]3)Cc3c2[nH]c2ccccc32)c1 (single isomer, unassigned)
[1]
  IC50: 0.78 nM
[2]
  IC50: 0.64 nM
[3]
  IC50: 0.36 nM
[4]
  inhibition: 91%
[6]
  IC50: 0.41 nM

## Cn1cc(C2(c3cccc(C(=O)O)n3)N[C@@H](c3nc(-c4ccc(F)cc4)c[nH]3)Cc3c2[nH]c2ccccc32)cn1 (single isomer, unassigned; 2A) [listing 1 of 2 here]
[1]
  IC50: 67 nM
[2]
  IC50: 4.41 nM
[3]
  IC50: 34 nM
[6]
  IC50: 3.93 nM

## Cn1cc(C2(c3cccc(C(=O)O)n3)N[C@@H](c3nc(-c4ccc(F)cc4)c[nH]3)Cc3c2[nH]c2ccccc32)cn1 (single isomer, unassigned; 2A) [listing 2 of 2 here]
[4]
  inhibition: 101%

## Cn1cc(C2(c3cccc(C(=O)O)n3)N[C@@H](c3nc(-c4ccc(F)cc4)c[nH]3)Cc3c2[nH]c2ccccc32)cn1 (single isomer, unassigned; 2B) [listing 1 of 2 here]
[1]
  IC50: 105 nM
[2]
  IC50: 74.7 nM
[3]
  IC50: 111 nM

## Cn1cc(C2(c3cccc(C(=O)O)n3)N[C@@H](c3nc(-c4ccc(F)cc4)c[nH]3)Cc3c2[nH]c2ccccc32)cn1 (single isomer, unassigned; 2B) [listing 2 of 2 here]
[4]
  inhibition: 69%

## Cn1cc(C2(c3cc(C(=O)O)ccn3)N[C@@H](c3nc(-c4ccc(F)cc4)c[nH]3)Cc3c2[nH]c2ccccc32)cn1 (single isomer, unassigned; 3A) [listing 1 of 2 here]
[7]
  concentration at 2.5 h: 0.074 µM
[8]
  bioavailability: 1.5%
[1]
  IC50: 1.71 nM
Mus musculus [9]
  inhibition in vivo at 3 mg/kg: 24%
[10]
  IC50: > 10000 nM
[2]
  IC50: 2.13 nM
Mus musculus [11]
  inhibition in vivo at 1 mg/kg: 64%
[12]
  concentration at 2.5 h: 0.002 µM
In vivo [13]
  Cmax at 0.5 h: 199 µM
[3]
  IC50: 0.73 nM
Canis familiaris
  Activity: Non-toxic
Mus musculus [14]
  inhibition in vivo at 3 mg/kg: 24%
[15]
  IC50: > 10000 nM
Mus musculus [16]
  inhibition in vivo at 10 mg/kg: 35%
[17]
  concentration at 2.5 h: 0.003 µM
[6]
  IC50: 1.72 nM
In vivo [18]
  Cmax at 0.5 h: 38 µM
In vivo [19]
  Cmax at 0.5 h: 909 µM
[20]
  IC50: > 10000 nM
[21]
  half-life: 2.62 h
[22]
  IC50: > 10000 nM
[23]
  clearance: 15.6 mL/min/kg

## Cn1cc(C2(c3cc(C(=O)O)ccn3)N[C@@H](c3nc(-c4ccc(F)cc4)c[nH]3)Cc3c2[nH]c2ccccc32)cn1 (single isomer, unassigned; 3A) [listing 2 of 2 here]
[4]
  inhibition: 81%

## Cn1cc(C2(c3cc(C(=O)O)ccn3)N[C@@H](c3nc(-c4ccc(F)cc4)c[nH]3)Cc3c2[nH]c2ccccc32)cn1 (single isomer, unassigned; 3B) [listing 1 of 2 here]
[1]
  IC50: 52.3 nM
[2]
  IC50: 72.7 nM
[3]
  IC50: 17.1 nM

## Cn1cc(C2(c3cc(C(=O)O)ccn3)N[C@@H](c3nc(-c4ccc(F)cc4)c[nH]3)Cc3c2[nH]c2ccccc32)cn1 (single isomer, unassigned; 3B) [listing 2 of 2 here]
[4]
  inhibition: 70%

## Cn1cc(C2(c3ccc(C(=O)O)cn3)N[C@@H](c3nc(-c4ccc(F)cc4)c[nH]3)Cc3c2[nH]c2ccccc32)cn1 (single isomer, unassigned; 5A) [listing 1 of 2 here]
[3]
  IC50: 57.1 nM

## Cn1cc(C2(c3ccc(C(=O)O)cn3)N[C@@H](c3nc(-c4ccc(F)cc4)c[nH]3)Cc3c2[nH]c2ccccc32)cn1 (single isomer, unassigned; 5A) [listing 2 of 2 here]
[4]
  inhibition: 87%

## Cn1cc(C2(c3ccc(C(=O)O)cn3)N[C@@H](c3nc(-c4ccc(F)cc4)c[nH]3)Cc3c2[nH]c2ccccc32)cn1 (single isomer, unassigned; 5B) [listing 1 of 2 here]
[3]
  IC50: 1860 nM

## Cn1cc(C2(c3ccc(C(=O)O)cn3)N[C@@H](c3nc(-c4ccc(F)cc4)c[nH]3)Cc3c2[nH]c2ccccc32)cn1 (single isomer, unassigned; 5B) [listing 2 of 2 here]
[4]
  inhibition: 51%

## CCOC(=O)c1cccc(C2(c3cnn(C)c3)N[C@@H](c3nc(-c4ccc(F)cc4)c[nH]3)Cc3c2[nH]c2ccccc32)n1 (single isomer, unassigned; 6A) [listing 1 of 2 here]
[1]
  IC50: 1.97 nM
[2]
  IC50: 0.83 nM
[3]
  IC50: 0.58 nM
[6]
  IC50: 0.41 nM

## CCOC(=O)c1cccc(C2(c3cnn(C)c3)N[C@@H](c3nc(-c4ccc(F)cc4)c[nH]3)Cc3c2[nH]c2ccccc32)n1 (single isomer, unassigned; 6A) [listing 2 of 2 here]
[4]
  inhibition: 80%

## CCOC(=O)c1cccc(C2(c3cnn(C)c3)N[C@@H](c3nc(-c4ccc(F)cc4)c[nH]3)Cc3c2[nH]c2ccccc32)n1 (single isomer, unassigned; 6B) [listing 1 of 2 here]
[1]
  IC50: 5.36 nM
[2]
  IC50: 1.52 nM
[3]
  IC50: 3.48 nM
[6]
  IC50: 0.7 nM

## CCOC(=O)c1cccc(C2(c3cnn(C)c3)N[C@@H](c3nc(-c4ccc(F)cc4)c[nH]3)Cc3c2[nH]c2ccccc32)n1 (single isomer, unassigned; 6B) [listing 2 of 2 here]
[4]
  inhibition: 87%

## CCOC(=O)c1ccc(C2(c3cnn(C)c3)N[C@@H](c3nc(-c4ccc(F)cc4)c[nH]3)Cc3c2[nH]c2ccccc32)nc1 (single isomer, unassigned; 9A) [listing 1 of 2 here]
[1]
  IC50: 5.25 nM
[2]
  IC50: 1.72 nM
[3]
  IC50: 1.53 nM

## CCOC(=O)c1ccc(C2(c3cnn(C)c3)N[C@@H](c3nc(-c4ccc(F)cc4)c[nH]3)Cc3c2[nH]c2ccccc32)nc1 (single isomer, unassigned; 9A) [listing 2 of 2 here]
[4]
  inhibition: 96%

## CCOC(=O)c1ccc(C2(c3cnn(C)c3)N[C@@H](c3nc(-c4ccc(F)cc4)c[nH]3)Cc3c2[nH]c2ccccc32)nc1 (single isomer, unassigned; 9B) [listing 1 of 2 here]
[1]
  IC50: 31.6 nM
[2]
  IC50: 2.91 nM
[3]
  IC50: 14.2 nM

## CCOC(=O)c1ccc(C2(c3cnn(C)c3)N[C@@H](c3nc(-c4ccc(F)cc4)c[nH]3)Cc3c2[nH]c2ccccc32)nc1 (single isomer, unassigned; 9B) [listing 2 of 2 here]
[4]
  inhibition: 66%
